Data as given in paper PMC6710338, “Turning a Collagenesis-Inducing Peptide Into a Potent Antibacterial and Antibiofilm Agent Against Multidrug-Resistant Gram-Negative Bacteria” (Frontiers in Microbiology, 2019).
Values after ≈ are worked out from the molar mass of the structure shown. Values joined by “and” are separate entries in the source; they are usually repeats but may differ in a detail not shown here. Equal values may be shown once. Read-outs that look alike come from different tables or passages of the source. Peptide text beside a SMILES is read from it.

Tests used:
S. aureus ATCC 25923 = assay: MIC, broth microdilution (CLSI), ATCC reference strain; format: cell-based, Staphylococcus aureus
Procedure: (§1) The minimum inhibitory concentration (MIC) of synthetic peptides was determined using the broth microdilution method in cation-adjusted Mueller-Hinton broth (MHB2 – Sigma-Aldrich, St. Louis, MO, United States), according to the recommendations of the Clinical and Laboratory Standards Institute ([CLSI, 2012]), against four reference strains, namely, P. aeruginosa ATCC 27853, E. coli ATCC 25922, S. aureus ATCC 25923 and Enterococcus faecalis ATCC 29212. MIC values of peptide 3.1-PP4 were also determined against MDR clinical isolates of P. aeruginosa (PA002, PA004, Pa3, Pa4), E. coli (Ec1, Ec2, EC001, EC002, EC003) and K. pneumoniae (KP004, KP007, KP010). The peptides were tested in the concentration range of 1–1024 μg/mL. The minimum bactericidal concentration (MBC) was determined as previously reported ([Bessa et al., 2018]). According to CLSI guidelines for antimicrobial susceptibility testing, MIC values were determined for all peptides against ATCC reference strains of two Gram-positive (S. aureus ATCC 25923 and E. faecalis ATCC 29212), and two Gram-negative (P. aeruginosa ATCC 27853 and E. coli ATCC 25922) bacterial species, and are shown in Table 2.

[1] = system: MDR clinical isolates of P. aeruginosa (PA002, PA004, Pa3, Pa4); format: cell-based, Pseudomonas aeruginosa
Procedure: as §1, with “2018]).” for “2018]). According to CLSI guidelines for antimicrobial susceptibility testing, MIC values were determined for all peptides against ATCC reference strains of two Gram-positive (S. aureus ATCC 25923 and E. faecalis ATCC 29212), and two Gram-negative (P. aeruginosa ATCC 27853 and E. coli ATCC 25922) bacterial species, and are shown in Table 2.”
(§2) In view of the above results, peptide conjugate 3.1-PP4 was selected for further investigation of its activity against MDR isolates of three Gram-negative bacterial species, namely, P. aeruginosa (four isolates), E. coli (five isolates), and K. pneumoniae (four isolates), whose antimicrobial resistance patterns are provided in the Supplementary Table S1. MDR isolates of K. pneumoniae were included in this analysis given (i) the high prevalence of K. pneumoniae in HAI ([Zheng et al., 2017]), (ii) that K. pneumoniae isolates used are carbanepem-resistant strains of an Enterobacteriaceae species, meaning that they are class 1 priority pathogens for the research and development of new antibiotics according to the WHO ([WHO, 2017]), and (iii) K. pneumoniae bacteria are usually better biofilm producers than the other Enterobacteriaceae species used, E. coli ([Reisner et al., 2006]). MIC values obtained are shown in Table 3, and confirm peptide’s 3.1-PP4 potent action against Gram-negative bacteria, including MDR isolates, with a selectivity index (SI), i.e., ratio of IC50 values for mammalian vs. bacterial cells, ranging from ca. 9–69. In fact, for P. aeruginosa and E. coli, MIC against MDR isolates were in the same range, or below, of those previously found for ATCC reference strains (Table 2). For K. pneumoniae, MIC values ranged between 1 and 4 μM, which is remarkable.

[2] = system: MDR clinical isolates of K. pneumoniae (KP004, KP007, KP010); format: cell-based, Klebsiella pneumoniae; details: for MIC: MHB2
Procedure: as §1, with “2018]).” for “2018]). According to CLSI guidelines for antimicrobial susceptibility testing, MIC values were determined for all peptides against ATCC reference strains of two Gram-positive (S. aureus ATCC 25923 and E. faecalis ATCC 29212), and two Gram-negative (P. aeruginosa ATCC 27853 and E. coli ATCC 25922) bacterial species, and are shown in Table 2.”
as §2

[3] = system: preformed biofilm of MDR P. aeruginosa PA004; assay: Biofilm metabolic activity (MTT); format: cell-based, Pseudomonas aeruginosa; details: isolate PA004, 24 h preformed biofilm, 20 × MIC, 24 h at 37°C, absorbance 570 nm
Procedure: The respective control biofilms were equally formed but in absence of the peptide (only TSB medium was used). Afterward, the bacterial metabolic activity of biofilms was quantified after adding 3-(4,5-dimethylthiazole-2-yl)-2,5-diphenyl tetrazolium bromide (MTT, 0.5 mg/mL – Sigma-Aldrich, St. Louis, MO, United States) for 3 h at 37°C in the dark. DMSO was used to dissolve the formazan crystals formed and the absorbance at 570 nm was measured. Two independent experiments were performed in four replicates.
The influence of the peptide on the metabolic activity of preformed biofilms of one P. aeruginosa (PA004) and three K. pneumoniae (KP004, KP007, and KP010) isolates was also assessed, through a standard MTT assay.

[4] = system: MDR isolates of P. aeruginosa, E. coli and K. pneumoniae; assay: Minimum bactericidal concentration (MBC); format: cell-based; details: all MDR isolates tested
Procedure: as §1, with “2018]).” for “2018]). According to CLSI guidelines for antimicrobial susceptibility testing, MIC values were determined for all peptides against ATCC reference strains of two Gram-positive (S. aureus ATCC 25923 and E. faecalis ATCC 29212), and two Gram-negative (P. aeruginosa ATCC 27853 and E. coli ATCC 25922) bacterial species, and are shown in Table 2.”
In view of the above results, peptide conjugate 3.1-PP4 was selected for further investigation of its activity against MDR isolates of three Gram-negative bacterial species, namely, P. aeruginosa (four isolates), E. coli (five isolates), and K. pneumoniae (four isolates), whose antimicrobial resistance patterns are provided in the Supplementary Table S1. […]

[5] = system: biofilms of PA004, KP007, and KP010; assay: CLSM imaging of biofilms after Live/Dead staining; format: cell-based, P. aeruginosa and K. pneumoniae; details: qualitative
Procedure: For confocal laser scanning microscopy (CLSM) imaging, 24 h biofilms of PA004, KP007, and KP010 were formed in μ-Dish (35 mm, high), ibidi Polymer Coverslips (ibidi GmbH, Planegg-Martinsried, Germany) as previously described by [Bessa et al. (2018)]. Biofilms were non-treated – controls (only medium was used) or treated with 3.1-PP4 at a concentration of 20 × MIC. After 24 h, all biofilms were stained using the LIVE/DEAD^TM BacLight^TM bacterial viability kit (Molecular Probes, Thermo Fisher Scientific, MA, United States). Biofilms were visualized under a laser scanning confocal system Leica TCS SP5 II (Leica Microsystems, Germany), equipped with an inverted (i) microscope Leica DMI6000-CS, using a HC PL APO CS 63x/1.30 Glycerine 21°C objective and the lasers Diode 405 nm and DPSS561 561 nm, and (ii) the LAS AF software.
To gain further insight into the peptide’s effects on the bacterial biofilms, a Live/Dead staining assay using CLSM was carried out, where untreated and peptide-treated biofilms delivered the images depicted in Figure 2. […] Noteworthy, only bacterial cells, not biofilm matrix, are stained when the Live/Dead staining is used, which means that only cells within the biofilm are observed.

MIC (S. aureus ATCC 25923; ATCC 25923): 16 µM
MIC (S. aureus ATCC 25923; S. aureus ATCC 25923, broth microdilution in MHB2, CLSI, range tested 1–1024 μg/mL): 32 µg/mL
MIC ([1]; MDR P. aeruginosa isolate PA002, MHB2): 4 µg/mL
MIC ([1]; MDR P. aeruginosa isolate PA004, MHB2): 2 μg/mL and 1 μM
MIC ([1]; MDR P. aeruginosa isolate Pa3, MHB2): 2 μg/mL and 1 μM
MIC ([1]; MDR P. aeruginosa isolate Pa4, MHB2): 2 μg/mL and 1 μM
MIC ([1]; MDR clinical isolates of (PA002, PA004, Pa3, Pa4)): 2 µM
MIC ([2]; MDR K. pneumoniae isolate KP004): 4 µg/mL (≈ 2.06 µM)
MIC ([2]; MDR K. pneumoniae isolate KP007): 8 µg/mL (≈ 4.12 µM)
MIC ([2]; MDR K. pneumoniae isolate KP010): 2 µg/mL (≈ 1.03 µM)
MIC values for K. pneumoniae ([2]; MDR clinical isolates of (KP004, KP007, KP010)): 1 to 4 µM
SMILES: CC(C)C[C@H](NC(=O)[C@H](Cc1c[nH]c2ccccc12)NC(=O)[C@H](CCCCN)NC(=O)[C@H](CC(C)C)NC(=O)[C@H](CC(C)C)NC(=O)[C@H](CCCCN)NC(=O)[C@@H](N)CCCCN)C(=O)N[C@@H](CC(C)C)C(=O)N[C@@H](CCCCN)C(=O)N[C@@H](CC(C)C)C(=O)N[C@@H](CC(C)C)C(=O)N[C@@H](CCCCN)C(=O)N[C@H](C(=O)N[C@H](C(=O)N[C@@H](CCCCN)C(=O)N[C@@H](CO)C(N)=O)[C@@H](C)O)[C@@H](C)O [Peptide 3.1-PP4] (H-KKLLKWLLKLLKTTKS-NH2; N-terminus assumed)
% reduction of metabolic activity in peptide-treated biofilms [3]: 8.3%
minimal bactericidal concentrations (MBC) [4]: match the MIC in all cases
ratio of red- to green-stained bacterial cells (Live/Dead, CLSM) ([5]; 24 h biofilms of PA004, KP007, KP010 treated 24 h at 20 × MIC, vs untreated): consistently higher in peptide-treated
impact on biofilm (Live/Dead, CLSM) ([5]; isolate KP010, 24 h biofilm treated 24 h at 20 × MIC): significant biofilm disaggregation
